Marks after values point to notes of the source that are not given here.
Tested on: osteoclast differentiation
Test: Osteoclast differentiation in co-culture of mouse bone marrow cells and ST2 cells, TRAP staining (Examples 8-9)
Type: cell-based
Conditions: for % number of osteoclast (vs. solvent control group): 0.1 μM each, day 7; for activity at 0.1 µM: Mus musculus, Osteoclast, 168 h, Individual treatment (compounds), day 7, read-out: % number of osteoclast (vs. solvent control group)
How it was run: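 Readout was TRAP-positive multinucleated (≥6 nuclei) cells on day 7, reported as % of 0.1% DMSO control, mean±SD of 4 wells. Cells were mouse (male ddY) bone marrow plus ST2 co-cultures driven by 10^−8 M vitamin D3/dexamethasone. Benzamidines, alendronic acid or risedronic acid were added at 0.1 μM alone or combined, with media renewed days 3 and 5.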

[1] = Combination treatment (alendronic acid + compounds)
[2] = Combination treatment (risedronic acid + compounds)

Cc1nc(-c2ccc(OCCCCCOc3ccc(C(=N)NO)cc3)cc2)c(CCN2CCN(C)CC2)s1 [Compound 232, N-hydroxy-4-[5-(4-{2-methyl-5-[2-(4-methyl-piperazin-1-yl)-ethyl]-thiazol-4-yl}-phenoxy)-pentyloxy]-benzamidine]
% number of osteoclast (vs. solvent control group) [1]: 39 ± 5.2^b % | % number of osteoclast (vs. solvent control group) [2]: 37 ± 4.9^c % | activity at 0.1 µM: 47 ± 9.4%

CCCCc1sc(N(CCC)CCC)nc1-c1ccc(OCCCCCOc2ccc(C(=N)NO)cc2)cc1 [Compound 146, N-hydroxy-4-{5-[4-(5-butyl-2-dipropylamino-1,3-thiazol-4-yl)phenoxy]pentyloxy}-benzamidine]
% number of osteoclast (vs. solvent control group) [1]: 79 ± 7.8% | % number of osteoclast (vs. solvent control group) [2]: 60 ± 13.6^c % | activity at 0.1 µM: 81 ± 8.9%

N=C(NO)c1ccc(OCCCCCOc2ccc(-c3nc(NC(=O)c4ccncc4)sc3CC3CCCC3)cc2)cc1 [Compound 112, N-hydroxy-4-{5-[4-(5-cyclopentylmethyl-2-(4-pyridylcarbonyl)amino-1,3-thiazol-4-yl)phenoxy]pentyloxy}-benzamidine]
% number of osteoclast (vs. solvent control group) [1]: 35 ± 7.6^ab % | % number of osteoclast (vs. solvent control group) [2]: 31 ± 8.0^ac % | activity at 0.1 µM: 77 ± 9.8%

Cc1nc(-c2ccc(OCCCCCOc3ccc(C(=N)NO)cc3)cc2)c(CCN2CCOCC2)s1 [Compound 231, N-hydroxy-4-(5-{4-[2-methyl-5-(2-morpholin-4-yl-ethyl)-thiazol-4-yl]-phenoxy}-pentyloxy)-benzamidine]
% number of osteoclast (vs. solvent control group) [1]: 50 ± 9.8^b % | % number of osteoclast (vs. solvent control group) [2]: 40 ± 3.1^ac % | activity at 0.1 µM: 82 ± 14.6%

C=Cc1sc(-c2cccnc2)nc1-c1ccc(OCCCCCOc2ccc(C(=N)NO)cc2)cc1 [Compound 79, N-hydroxy-4-{5-[4-(5-vinyl-2-(pyridin-3-yl)-1,3-thiazol-4-yl)phenoxy]pentyloxy}-benzamidine]
% number of osteoclast (vs. solvent control group) [1]: 22 ± 6.7^ab % | % number of osteoclast (vs. solvent control group) [2]: 16 ± 4.0^ac % | activity at 0.1 µM: 44 ± 7.5%

N=C(NO)c1ccc(OCCCCCOc2ccc(-c3csc(-c4cccnc4)n3)cc2)cc1 [Compound 7, N-hydroxy-4-{5-[4-(2-pyridine-3-yl-1,3-thiazol-4-yl)phenoxy]pentyloxy}-benzamidine]
% number of osteoclast (vs. solvent control group) [1]: 35 ± 7.1^b % | % number of osteoclast (vs. solvent control group) [2]: 34 ± 10.1^c % | activity at 0.1 µM: 52 ± 4.8%

Cc1sc(N(C)Cc2ccccc2)nc1-c1ccc(OCCCCCOc2ccc(C(=N)NO)cc2)cc1 [Compound 125, N-hydroxy-4-{5-(4-[2-(benzyl-methyl-amino)-5-methyl-1,3-thiazol-4-yl]phenoxy)pentyloxy}-benzamidine]
% number of osteoclast (vs. solvent control group) [1]: 43 ± 3.3^ab % | % number of osteoclast (vs. solvent control group) [2]: 21 ± 9.0^ac % | activity at 0.1 µM: 66 ± 4.4%

N=C(NO)c1ccc(OCCCCCOc2ccc(-c3nc(-c4ccccc4)sc3CCN3CCOCC3)cc2)cc1 [Compound 254, N-hydroxy-4-(5-{4-[5-(2-morpholin-4-yl-ethyl)-2-phenyl-thiazol-4-yl]-phenoxy}-pentyloxy)-benzamidine]
% number of osteoclast (vs. solvent control group) [1]: 29 ± 6.3^b % | % number of osteoclast (vs. solvent control group) [2]: 11 ± 2.5^ac % | activity at 0.1 µM: 40 ± 8.3%

CNC(=O)c1sc(N)nc1-c1ccc(OCCCCCOc2ccc(C(=N)NO)cc2)cc1 [Compound 285, N-hydroxy-4-{5-[4-(2-amino-5-methylcarbamoyl-thiazol-4-yl)-phenoxy]-pentyloxy}-benzamidine]
% number of osteoclast (vs. solvent control group) [1]: 53 ± 0.9% | % number of osteoclast (vs. solvent control group) [2]: 40 ± 3.9^ac % | activity at 0.1 µM: 70 ± 8%

CCc1sc(N2CCCCC2)nc1-c1ccc(OCCCCCOc2ccc(C(=N)NO)cc2)cc1 [Compound 166, N-hydroxy-4-{5-[4-(5-ethyl-2-piperidino-1,3-thiazol-4-yl)phenoxy]pentyloxy}-benzamidine]
% number of osteoclast (vs. solvent control group) [1]: 43 ± 9.4^ab % | % number of osteoclast (vs. solvent control group) [2]: 35 ± 3.9^ac % | activity at 0.1 µM: 73 ± 4.4%

Cc1nc(-c2ccc(OCCCCCOc3ccc(C(=N)NO)c(O)c3)cc2)c(C(C)C)s1 [Compound 188, 2,N-dihydroxy-4-{5-[4-(5-isopropyl-2-methyl-1,3-thiazol-4-yl)-phenoxy]-pentyloxy}-benzamidine]
% number of osteoclast (vs. solvent control group) [1]: 35 ± 3.2^ab % | % number of osteoclast (vs. solvent control group) [2]: 23 ± 5.1^ac % | activity at 0.1 µM: 56 ± 5.4%

CN(CCO)c1nc(-c2ccc(OCCCCCOc3ccc(C(=N)NO)cc3)cc2)c(CN2CCOCC2)s1 [Compound 310, N-hydroxy-4-[5-(4-{2-[(2-hydroxy-ethyl) -methyl-amino]-5-morpholin-4-ylmethyl-thiazol-4-yl}-phenoxy)-pentyloxy]-benzamidine]
% number of osteoclast (vs. solvent control group) [1]: 33 ± 5.1^ab % | % number of osteoclast (vs. solvent control group) [2]: 18 ± 4.5^ac % | activity at 0.1 µM: 49 ± 3.3%

CCCCc1sc(NC)nc1-c1ccc(OCCCCCOc2ccc(C(=N)NO)cc2)cc1 [Compound 105, N-hydroxy-4-{5-[4-(5-butyl-2-methylamino-1,3-thiazol-4-yl)phenoxy]pentyloxy}-benzamidine]
% number of osteoclast (vs. solvent control group) [1]: 42 ± 3.0^b % | % number of osteoclast (vs. solvent control group) [2]: 41 ± 8.8^ac % | activity at 0.1 µM: 87 ± 11%

Cc1nc(-c2ccc(OCCCCCOc3ccc(C(=N)NO)cc3)cc2)c(CCN2CCCCC2)s1 [Compound 216, N-hydroxy-4-(5-{4-[2-methyl-5-(2-piperidin-1-yl-ethyl)-thiazol-4-yl]-phenoxy}-pentyloxy)-benzamidine]
% number of osteoclast (vs. solvent control group) [1]: 72 ± 13.0% | % number of osteoclast (vs. solvent control group) [2]: 48 ± 7.8^ac % | activity at 0.1 µM: 70 ± 5%

Cc1nc(-c2ccc(OCCCCC(=O)Nc3ccc(C(=N)NO)cc3)cc2)c(C(C)C)s1 [Compound 182, N-hydroxy-4-{5-[4-(5-isopropyl-2-methyl-1,3-thiazol-4-yl)-phenoxy]-pentanoyl-amino}-benzamidine]
% number of osteoclast (vs. solvent control group) [1]: 45 ± 6.7% | % number of osteoclast (vs. solvent control group) [2]: 41 ± 5.1^c % | activity at 0.1 µM: 82 ± 12%

Cc1nc(-c2ccc(OCCCCCOc3ccc(C(=N)NO)cc3)cc2)c(CNCC(C)C)s1 [Compound 299, N-hydroxy-4-(5-{4-[5-(isobutylamino-methyl)-2-methyl-thiazol-4-yl]-phenoxy}-pentyloxy)-benzamidine]
% number of osteoclast (vs. solvent control group) [1]: 14 ± 2.9^ab % | % number of osteoclast (vs. solvent control group) [2]: 11 ± 6.0^ac % | activity at 0.1 µM: 40 ± 6.9%

Cc1nc(-c2ccc(OCCCCCOc3ccc(C(=N)NO)cc3)cc2)cs1 [Compound 3, N-hydroxy-4-{5-[4-(2-methyl-1,3-thiazol-4-yl)phenoxy]pentyloxy}-benzamidine]
% number of osteoclast (vs. solvent control group) [1]: 40 ± 4.6^b % | % number of osteoclast (vs. solvent control group) [2]: 33 ± 6.8^c % | activity at 0.1 µM: 52 ± 8.9%

CCc1sc(N(C)Cc2ccccc2)nc1-c1ccc(OCCCCCOc2ccc(C(=N)NO)cc2)cc1 [Compound 133, N-hydroxy-4-[5-{4-[2-(benzyl-methyl-amino)-5-ethyl-1,3-thiazol-4-yl]phenoxy}pentyloxy]-benzamidine]
% number of osteoclast (vs. solvent control group) [1]: 42 ± 8.3^b % | % number of osteoclast (vs. solvent control group) [2]: 25 ± 5.7^ac % | activity at 0.1 µM: 54 ± 8.3%

Cc1nc(-c2ccc(OCc3ccccc3COc3ccc(C(=N)NO)cc3)cc2)c(C(C)C)s1 [Compound 208, N-hydroxy-4-{2-[4-(5-isopropyl-2-methyl-thiazol-4-yl)-phenoxymethyl]-benzyloxy}-benzamidine]
% number of osteoclast (vs. solvent control group) [1]: 75 ± 6.3% | % number of osteoclast (vs. solvent control group) [2]: 67 ± 6.5^ac % | activity at 0.1 µM: 92 ± 5.8%

Cc1nc(-c2ccc(OCCCCCOc3ccc(C(=N)NO)cc3)cc2)c(CN2CCCCC2)s1 [Compound 296, N-hydroxy-4-{5-[4-(2-methyl-5-piperidin-1-ylmethyl-thiazol-4-yl)-phenoxy]-pentyloxy}-benzamidine]
% number of osteoclast (vs. solvent control group) [1]: 13 ± 2.6^ab % | % number of osteoclast (vs. solvent control group) [2]: 8 ± 1.7^ac % | activity at 0.1 µM: 46 ± 3.6%

Cc1nc(-c2ccc(OCCCCCOc3ccc(C(=N)N)cc3)cc2)c(C)s1 [Compound 54, 4-{5-[4-(2,5-dimethyl-1,3-thiazol-4-yl)phenoxy]pentyloxy}-benzamidine]
% number of osteoclast (vs. solvent control group) [1]: 20 ± 4.1^ab % | % number of osteoclast (vs. solvent control group) [2]: 19 ± 4.9^ac % | activity at 0.1 µM: 41 ± 8.3%

CCc1nc(-c2ccc(OCCCCCOc3ccc(C(=N)NO)cc3)cc2)c(CCN2CCSCC2)s1 [Compound 256, N-hydroxy-4-(5-{4-[2-ethyl-5-(2-thiomorpholin-4-yl-ethyl)-thiazol-4-yl]-phenoxy}-pentyloxy)-benzamidine]
% number of osteoclast (vs. solvent control group) [1]: 26 ± 3.0^ab % | % number of osteoclast (vs. solvent control group) [2]: 12 ± 2.4^ac % | activity at 0.1 µM: 49 ± 0.9%

CCN(Cc1ccccc1)c1nc(-c2ccc(OCCCCCOc3ccc(C(=N)NO)cc3)cc2)c(C)s1 [Compound 127, N-hydroxy-4-[5-{4-[2-(benzyl-ethyl-amino)-5-methyl-1,3-thiazol-4-yl]phenoxy}pentyloxy]-benzamidine]
% number of osteoclast (vs. solvent control group) [1]: 37 ± 6.8^ab % | % number of osteoclast (vs. solvent control group) [2]: 33 ± 7.3^ac % | activity at 0.1 µM: 75 ± 14.3%
